# Laboratory results from article PMC13286573, “Exploration of precision coregulator TR-FRET identifies diverse signatures for LXR ligands relevant to discovery of nonlipogenic ABCA1 inducers” (eLife, 2026).
# Entries after “also recorded” stand apart in the source; their conditions may differ. Read-outs that look alike come from different tables or passages of the source.
# Key:
# LXRα [1] = biological target: T1, LXRα (Homo sapiens, UniProt Q13133); assay: SRC-1 coactivator recruitment to LXRα, coregulator TR-FRET (CRT); format: biochemical; design: The CRT selectivity assay incorporates GST-tagged LXR-LBD; purchased Thermo Fisher Scientific PV4657; conditions: in the presence of 24HC (3 µM)
# T1 sequence (Q13133 209-447 limits assumed): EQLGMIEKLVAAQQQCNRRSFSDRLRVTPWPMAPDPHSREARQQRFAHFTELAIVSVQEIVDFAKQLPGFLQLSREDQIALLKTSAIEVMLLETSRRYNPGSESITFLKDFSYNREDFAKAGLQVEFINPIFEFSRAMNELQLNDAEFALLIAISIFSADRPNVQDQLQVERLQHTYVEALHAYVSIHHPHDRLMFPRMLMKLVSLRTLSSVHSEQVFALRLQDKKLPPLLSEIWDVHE
# LXRβ [2] = biological target: T2, LXRβ (Homo sapiens, UniProt P55055); assay: SMRT2 corepressor binding to LXRβ, CRT; format: biochemical; design: The CRT selectivity assay incorporates GST-tagged LXR-LBD; purchased Thermo Fisher Scientific PV4660; conditions: for activity at 1 µM: read-out: SMRT2β, relative % activity at 1 μM
# T2 sequence (P55055 222-460 limits assumed): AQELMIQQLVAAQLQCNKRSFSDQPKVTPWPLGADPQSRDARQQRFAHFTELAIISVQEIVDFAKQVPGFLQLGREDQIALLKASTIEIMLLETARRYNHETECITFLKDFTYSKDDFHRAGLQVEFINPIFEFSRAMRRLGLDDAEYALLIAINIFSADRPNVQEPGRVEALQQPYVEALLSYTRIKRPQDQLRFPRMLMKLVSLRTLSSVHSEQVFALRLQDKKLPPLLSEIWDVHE
# LXRα [3] = biological target: T1, LXRα; assay: NCOR2 corepressor binding to LXRα, CRT; format: biochemical; design: The CRT selectivity assay incorporates GST-tagged LXR-LBD; purchased Thermo Fisher Scientific PV4657; conditions: read-out: NCOR2α, relative % activity at 1 μM
# LXR [4] = assay: Corepressor (NCOR2, SMRT2) binding to LXR, CRT, statements across isoforms; format: biochemical; conditions: monoplex CRT, absence of coactivator
# [5] = system: mouse model of non-alcoholic steatohepatitis (NASH); design: method as in Griffett et al., 2015; Griffett and Burris, 2016; conditions: ref Griffett et al., 2015; Griffett and Burris, 2016; cited from earlier work
# LXR [6] = assay: Categorization of ligands by CRT/pCRT signature; format: biochemical; conditions: response at 1 µM ligand compared with theoretical signatures
# Text: With the knowledge that, in pCRT, corepressors bind to the apo-receptor; whereas coactivator binding requires a ligand-induced conformational change, we can categorize all ligands using their CRT profiles. Ligands induce three LXR conformational ensembles with CoR (destabilizing D, stabilizing S, neutral N) and only two conformations with CoA (stabilizing S, neutral N) (Figure 9 (Table 1)). In categorizing ligands based upon these CRT characteristics, labels are needed.
# The category for each ligand is not always identical for LXRα vs. LXRβ. Similarly, the phenotype associated with each classification is isoform dependent. Recruitment of CoA to LXRβ by FA, WA, and PA will activate transcription; whereas, lack of recruitment by SA, HA, and RA will antagonize transcription (Figure 9 (Table 1)). Stabilization of CoA and/or destabilization of CoR bound to LXRα is a derepression mechanism leading to activation/transcription for FA, WA, and RA; whereas partial activation is expected for PA.
# To determine which LXR ligands fit with these theoretical CRT signatures, concentration-response curves were interpolated to measure normalized response at 1 µM ligand concentration and plotted as a heat map (Figure 9A).
# LXRα [7] = biological target: T1, LXRα; assay: SMRT2 corepressor binding to LXRα, CRT; format: biochemical; design: The CRT selectivity assay incorporates GST-tagged LXR-LBD; purchased Thermo Fisher Scientific PV4657; conditions: read-out: SMRT2α, relative % activity at 1 μM
# HepG2 cells = assay: Cell viability in HepG2 cells under SRE-luc conditions; format: cell-based, human; conditions: conditions of SRE-luc measurements
# Text: Figure 5. Lipogenic response of HepG2 cells to treatment with liver X receptor (LXR) ligands. […] See Figure 3—figure supplement 1 for biological replicates. […] See Figure 5—figure supplement 1 for full concentration-response curves. Figure 5—figure supplement 1. Response of HepG2 cells to treatment with liver X receptor (LXR) ligands. (A–B) Lipogenic response of HepG2 cells to treatment with liver X receptor (LXR) ligands showing full concentration-response curves for biphenyl compounds shown in Figure 5E–F. (C) Cell viability in HepG2 cells under identical conditions to those used to obtain sterol response element (SRE)-luc data. [drawing 5]
# ABCA1 = assay: ABCA1-luc reporter assay in CCF-STTG1 astrocytoma cells; format: cell-based, human; conditions: normalized to T0
# Text: Astrocytoma CCF-STTG1 cells, stably transfected with an ABCA1-promoter linked to a luciferase response element, provide a model for ABCA1 induction in astrocytes ([Ben Aissa et al., 2021]). […] Apparent inverse agonist activity in cell-based assays can result from ‘true’ inverse agonist recruitment of corepressors or from antagonist activity towards endogenous sterol LXR agonists. Although we use serum-stripped media, antagonism of endogenous LXR agonists cannot be ruled out.
# Low passage CCF-STTG1 cells (20,000 cells/well) were seeded in 96-well plates in media containing charcoal-stripped FBS and incubated at 37 °C and 5% CO2 for 24 hr prior to a 24 hr treatment. All compounds were dissolved in DMSO, and final DMSO concentrations never exceeded 1%. After a 24 hr incubation period, add a volume of ONE-GLOEX Reagent that is equal to the volume of culture medium in each well and incubate for 3–5 min on the shaker. The luminescent activity of compounds ([…], 10-fold dilution) was examined using the ONE-GLOEX assay (Promega). […] The assays were performed in duplicates for each concentration, and the EC50 values were determined from non-linear regression analysis of the dose-response curve generated in GraphPad Prism 9.
# LXRβ [8] = biological target: T2, LXRβ; assay: SRC-1 coactivator recruitment to LXRβ, coregulator TR-FRET (CRT); format: biochemical; design: The CRT selectivity assay incorporates GST-tagged LXR-LBD; purchased Thermo Fisher Scientific PV4660
# LXRβ [9] = biological target: T2, LXRβ; assay: NCOR2 corepressor binding to LXRβ, CRT; format: biochemical; design: The CRT selectivity assay incorporates GST-tagged LXR-LBD; purchased Thermo Fisher Scientific PV4660; conditions: read-out: NCOR2β, relative % activity at 1 μM
# [10] = ligand 1 µM, interpolated from concentration-response, normalized, heat map Figure 9A
Compound,Antagonism of 24HC agonism at LXRα (SRC-1 CRT) (LXRα [1]),activity at 1 µM (LXRβ [2]),activity at 1 µM (LXRα [3]),"Corepressor (NCOR2, SMRT2) displacement or stabilization, across LXR isoforms (LXR [4])",Hepatic effects in NASH mouse model [5],CRT/pCRT signature category (LXR [6]),activity at 1 µM (LXRα [7]),HepG2 cell viability/cytotoxicity (HepG2 cells),ABCA1 induction response/phenotype in CCF cells (ABCA1),Antagonism of 24HC agonism at LXRβ (SRC-1 CRT) (LXRβ [8]; in the presence of 24HC (3 µM)),activity at 1 µM (LXRβ [9]),Effect on SMRT2 binding to LXRβ (LXRβ [2]),activity at 1 µM (LXRα [3]; [10]),activity at 1 µM (LXRα [7]; [10]),Antagonism of 24HC agonism at LXRβ (SRC-1 CRT) (LXRβ [8])
CCOC(=O)c1ccc(CN(Cc2ccc(-c3cccc(S(C)(=O)=O)c3)cc2)S(=O)(=O)c2c(C)cc(C)cc2C)o1 [SR9238],without effect on LXRα,69.2%,64.5%,strong agonist responses,significantly reduced hepatic inflammation and fibrosis,RA (reverse agonist (RA)),64.5%,no loss of cell viability,inverse agonist activity in cells,antagonized the agonism of 24HC at LXRβ,21.9%,–,–,–,–
Cc1cc(C)c(S(=O)(=O)N(Cc2ccc(-c3cccc(S(C)(=O)=O)c3)cc2)Cc2ccc(C(F)(F)F)o2)c(C)c1 [GSK2033],without effect on LXRα,93.4%,–,little or no ability to displace NCOR2 and SMRT2 corepressors from LXR; also recorded: does not stabilize a conformation that disrupts corepressor binding to LXRα,no beneficial effects on hepatic steatosis,HA (hard antagonist (HA)),–,no loss of cell viability,inverse agonist activity in cells,–,57.7%,selectively displace SMRT2 from LXRβ,97.7%,92.9%,antagonized the agonism of 24HC at LXRβ
